# Results from PMC7237647, “Synthesis, in vitro and in vivo evaluation of ^11C-O-methylated arylpiperazines as potential serotonin 1A (5-HT1A) receptor antagonist radiotracers” (EJNMMI Radiopharmacy and Chemistry, 2020).
# Columns and labels:
# [1] = Dynamic PET/MR imaging of brain uptake in rats; format: in vivo; details: rat; for Brain uptake: dynamic PET, bolus i.v. injection, 60 min scan
# Experimental: […]. All experimental procedures were carried out in accordance with the Institutional Animal Care Committee ethical guidelines (Animal Use Protocol # 783).
# Adult male Sprague Dawley rats (500–600 g, 8–12 months old) were anesthetized by isoflurane (5% induction; O2 rate: 2 L/min) and catheterized in the lateral tail vein using a Surflash Polyurethane IV Catheter 24G × 3/4″(Terumo; Somerset, New Jersey, US). Following insertion, the catheter was flushed with heparinized saline (30 IU/ml, ~ 200 μl). The animal was transferred to the scanner bed in prone position, the head immobilized in a flat skull position for the duration of the acquisition using built in ear and bite bars; the scanner bed temperature was initially set at 40 °C but was subject to alteration based on animals’ body temperature during the experiment. Anesthesia was maintained throughout the PET/MR scanning procedure (isoflurane: 1.5–2%; O2 rate: 1 L/min) and the animals’ body temperature and respiration parameters were closely monitored.
# Imaging studies were conducted on a nanoScan PET/MRI 3 T tomograph (Mediso; Budapest, Hungary). At first, a scout MR was acquired for subsequent PET field of view (FOV) positioning. MR images were used to define anatomical regions of interest (ROIs) through PET/MRI image co-registration. MR sequences included: material map T1-weighted 2D-gradient echo (GRE, TR 354 ms, TE 3.64) multi-FOV sequence for PET and MR co-registration and PET scatter and attenuation corrections, and T2-weighted 2D-fast spin-echo (FSE, TR 3971 ms, TE 87.5 ms) sequence for co-registration with standard rat brain MR template and atlas of Schwarz et al. ([2006]), and PET ROI analyses. MR images were acquired either before or after PET imaging.
# […]. mass injected for [^11C]1–3: 0.15–0.40 nmol/kg), a 60 min emission list mode scan was acquired with an energy window of 400–600 keV.
# The acquired list mode data was sorted into 33, 3D (3 × 5 s, 3 × 15 s, 3 × 20s, 7 × 60s and 17 × 180 s) true sinograms (ring difference 84). The 3D sinograms were converted in 2D sinograms using fourier-rebinning (Defrise et al. [1997]), during which corrections were included for detector geometry and efficiencies, attenuation and scatter, prior to image reconstruction using a 2D–filtered back projection (FBKP) with an Hann filter at a cutoff of 0.50 cm-1. A static image of the complete emission acquisition was reconstructed with the manufacturer’s proprietary iterative 3D algorithm (6 subsets, 4 iterations). All image data were corrected for dead-time and decay corrected to the start of acquisition. The dynamic FBKP images were used for the extraction of time-activity curves (TACs). The static iterative image was used for PET and MR co-registration and also for co-registration with standard rat brain MR template and atlas (Schwarz et al. [2006]). Image analyses and extraction of regional brain TACs were performed using Amide software (v1.0.4) (Loening and Gambhir [2003]). Standardized uptake values (SUV) were calculated by normalizing regional radioactivity for injected radioactivity and body weight of the animal. Regional brain BP were obtained by using simplified reference tissue model (SRTM) of Lammertsma and Hume ([1996]), with averaged TACs of left and right cerebellum as the reference. […] Percentages of blocking were calculated by the equation: Blocking% = 100 x (BPblocking – BPbaseline)/BPbaseline.
# [2] = system: α1-adrenergic receptors; experiment: PET/MR blocking study with prazosin pre-treatment; format: in vivo, Sprague Dawley rats; details: prazosin 2 mg/kg IV 20 min prior to tracer, rat
# Experimental: 5-HT1A receptor selectivity of the radiotracer with the most promising brain penetrating properties was further investigated in two separate baseline and pre-treatment (blocking) experiments. A within-subject PET/MR imaging design was employed for baseline and blocking experiments. In the first PET/MR imaging session, brain radiotracer uptake was determined under baseline conditions whereby radiotracer was intravenously administered simultaneously with the start of PET acquisition. The catheter was flushed with heparinized saline (~ 100 μl) and capped to allow blocker/radiotracer injections for the subsequent pre-treatment experiment. Before the start of the second PET measurement, the animals were infused with a suitable blocking agent intravenously 20 min prior to radiotracer injection and concomitant PET acquisition. To confirm target engagement at 5-HT1A receptor, WAY-100635 maleate (Sigma-Aldrich), a potent 5-HT1A receptor antagonist (2 mg/kg) was infused intravenously 20 min before radiotracer injection. In order to further investigate potential off-target binding at α1-adrenergic receptors in vivo, prazosin hydrochloride (Sigma-Aldrich), a potent α1-adrenergic receptor antagonist (2 mg/kg) was infused 20 min before radiotracer injection and PET acquisition.
# The acquired list mode data was sorted into 33, 3D (3 × 5 s, 3 × 15 s, 3 × 20s, 7 × 60s and 17 × 180 s) true sinograms (ring difference 84). The 3D sinograms were converted in 2D sinograms using fourier-rebinning (Defrise et al. [1997]), during which corrections were included for detector geometry and efficiencies, attenuation and scatter, prior to image reconstruction using a 2D–filtered back projection (FBKP) with an Hann filter at a cutoff of 0.50 cm-1. A static image of the complete emission acquisition was reconstructed with the manufacturer’s proprietary iterative 3D algorithm (6 subsets, 4 iterations). All image data were corrected for dead-time and decay corrected to the start of acquisition. The dynamic FBKP images were used for the extraction of time-activity curves (TACs). The static iterative image was used for PET and MR co-registration and also for co-registration with standard rat brain MR template and atlas (Schwarz et al. [2006]). Image analyses and extraction of regional brain TACs were performed using Amide software (v1.0.4) (Loening and Gambhir [2003]). Standardized uptake values (SUV) were calculated by normalizing regional radioactivity for injected radioactivity and body weight of the animal. Regional brain BP were obtained by using simplified reference tissue model (SRTM) of Lammertsma and Hume ([1996]), with averaged TACs of left and right cerebellum as the reference. This was performed by using the basis function method (BFM) of Gunn et al. ([1997]) in the package of Turku PET Centre (https://gitlab.utu.fi/vesoik/tpcclib) (Gunn et al. [1997]). Percentages of blocking were calculated by the equation: Blocking% = 100 x (BPblocking – BPbaseline)/BPbaseline.
# [3] = target: α1-adrenergic receptors; parameters: method as in Chemel et al. [2006]; details: ref Chemel et al. [2006]; cited from earlier work
# [4] = target: 5-HT1A receptors; parameters: method as in Yasuno et al. [2006]; details: ref Yasuno et al. [2006]; cited from earlier work
# [5] = target: 5-HT2B receptors; parameters: method as in Yasuno et al. [2006]; details: ref Yasuno et al. [2006]; cited from earlier work
# [6] = target: alpha-1 (α1) adrenergic receptors; parameters: method as in Yasuno et al. [2006]; details: ref Yasuno et al. [2006]; cited from earlier work
# [7] = target: D2; parameters: method as in Yasuno et al. [2006]; details: ref Yasuno et al. [2006]; cited from earlier work
# [8] = target: D3; parameters: method as in Yasuno et al. [2006]; details: ref Yasuno et al. [2006]; cited from earlier work
# [9] = target: D4; parameters: method as in Yasuno et al. [2006]; details: ref Yasuno et al. [2006]; cited from earlier work
# [10] = target: T1, 5-HT1B (Homo sapiens, UniProt P28222); experiment: NIMH-PDSP radioligand binding assay, 5-HT1B
# T1 construct: NIMH-PDSP
# T1 sequence (P28222 whole entry, species assumed): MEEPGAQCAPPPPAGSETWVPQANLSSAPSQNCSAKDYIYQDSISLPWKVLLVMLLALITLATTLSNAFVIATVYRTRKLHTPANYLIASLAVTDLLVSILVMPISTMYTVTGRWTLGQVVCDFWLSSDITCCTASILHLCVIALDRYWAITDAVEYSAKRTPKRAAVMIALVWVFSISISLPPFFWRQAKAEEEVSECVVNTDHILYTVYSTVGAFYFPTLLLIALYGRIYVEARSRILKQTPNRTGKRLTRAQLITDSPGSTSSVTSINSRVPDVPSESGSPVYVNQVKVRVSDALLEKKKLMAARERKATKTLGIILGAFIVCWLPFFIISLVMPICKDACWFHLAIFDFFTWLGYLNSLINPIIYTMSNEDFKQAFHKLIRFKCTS
# Experimental: (§1) . Cross selectivity for biogenic amines, neurotransmitter receptors, and transporters were determined by radioligand binding assays through NIMH- PDSP using validated and established protocols ([NIMH-PDSP Assay Protocol Book Version III, March 2018]).
# [11] = target: T2, 5-HT1E (Homo sapiens, UniProt P28566); experiment: NIMH-PDSP radioligand binding assay, 5-HT1E
# T2 construct: NIMH-PDSP
# Experimental: as §1
# [12] = target: T3, 5-HT1D (Homo sapiens, UniProt P28221); experiment: NIMH-PDSP radioligand binding assay, 5-HT1D
# T3 construct: NIMH-PDSP
# T3 sequence (P28221 whole entry, species assumed): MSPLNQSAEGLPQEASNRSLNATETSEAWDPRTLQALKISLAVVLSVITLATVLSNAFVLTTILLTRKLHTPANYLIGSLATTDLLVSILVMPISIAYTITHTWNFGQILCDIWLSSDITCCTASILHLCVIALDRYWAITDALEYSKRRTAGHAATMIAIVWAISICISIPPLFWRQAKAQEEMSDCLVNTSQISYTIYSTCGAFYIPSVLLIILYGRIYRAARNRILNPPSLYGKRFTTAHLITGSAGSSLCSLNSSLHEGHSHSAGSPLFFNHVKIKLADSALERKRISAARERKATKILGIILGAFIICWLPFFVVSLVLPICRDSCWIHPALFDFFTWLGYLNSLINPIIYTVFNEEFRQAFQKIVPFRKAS
# Experimental: as §1
# [13] = target: T4, 5-HT2B (Homo sapiens, UniProt P41595); experiment: NIMH-PDSP radioligand binding assay, 5-HT2B
# T4 construct: NIMH-PDSP
# T4 sequence (P41595 whole entry, species assumed): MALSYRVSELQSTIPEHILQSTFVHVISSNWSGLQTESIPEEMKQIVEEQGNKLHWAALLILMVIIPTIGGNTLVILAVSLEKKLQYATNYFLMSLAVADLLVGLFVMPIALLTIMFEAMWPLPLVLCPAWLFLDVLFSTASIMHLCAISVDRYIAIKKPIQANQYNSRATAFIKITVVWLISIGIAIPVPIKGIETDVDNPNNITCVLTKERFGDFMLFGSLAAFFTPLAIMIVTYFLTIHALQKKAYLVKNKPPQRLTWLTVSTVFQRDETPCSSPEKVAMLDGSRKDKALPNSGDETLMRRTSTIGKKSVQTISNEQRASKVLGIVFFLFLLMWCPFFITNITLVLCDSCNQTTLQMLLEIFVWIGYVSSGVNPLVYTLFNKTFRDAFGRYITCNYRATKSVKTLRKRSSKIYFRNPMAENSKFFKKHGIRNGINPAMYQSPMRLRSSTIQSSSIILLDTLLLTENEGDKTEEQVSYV
# Experimental: as §1
# [14] = target: T5, 5-HT3 (Homo sapiens, UniProt P46098); experiment: NIMH-PDSP radioligand binding assay, 5-HT3
# T5 construct: NIMH-PDSP
# T5 sequence (P46098 24-478): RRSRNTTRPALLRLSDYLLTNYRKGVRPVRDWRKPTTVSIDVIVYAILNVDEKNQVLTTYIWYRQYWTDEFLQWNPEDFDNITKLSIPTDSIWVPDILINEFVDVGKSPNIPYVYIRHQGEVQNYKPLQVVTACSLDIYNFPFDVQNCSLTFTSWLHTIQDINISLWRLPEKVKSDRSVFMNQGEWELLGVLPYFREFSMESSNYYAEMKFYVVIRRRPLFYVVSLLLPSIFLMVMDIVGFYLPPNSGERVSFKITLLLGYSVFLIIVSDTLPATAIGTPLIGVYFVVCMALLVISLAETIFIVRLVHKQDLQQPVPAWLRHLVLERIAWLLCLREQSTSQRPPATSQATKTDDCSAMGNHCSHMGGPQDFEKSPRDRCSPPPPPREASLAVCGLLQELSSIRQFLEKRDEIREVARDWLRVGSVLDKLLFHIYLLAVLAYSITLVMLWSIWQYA
# Experimental: as §1
# [15] = target: T6, 5-HT4 (Homo sapiens, UniProt Q13639); experiment: NIMH-PDSP radioligand binding assay, 5-HT4
# T6 construct: NIMH-PDSP
# T6 sequence (Q13639 whole entry, species assumed): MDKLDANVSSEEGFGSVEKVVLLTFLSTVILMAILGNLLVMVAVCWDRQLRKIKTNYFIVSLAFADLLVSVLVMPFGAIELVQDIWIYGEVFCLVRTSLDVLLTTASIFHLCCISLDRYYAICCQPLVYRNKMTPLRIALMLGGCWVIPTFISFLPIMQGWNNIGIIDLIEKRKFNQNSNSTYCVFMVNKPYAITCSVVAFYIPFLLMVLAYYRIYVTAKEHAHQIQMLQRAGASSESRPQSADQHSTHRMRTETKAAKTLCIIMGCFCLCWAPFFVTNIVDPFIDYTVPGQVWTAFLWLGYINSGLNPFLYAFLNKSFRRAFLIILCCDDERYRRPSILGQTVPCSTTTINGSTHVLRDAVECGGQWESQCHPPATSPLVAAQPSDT
# Experimental: as §1
# [16] = target: T7, 5-HT5a (Homo sapiens, UniProt P47898); experiment: NIMH-PDSP radioligand binding assay, 5-HT5a
# T7 construct: NIMH-PDSP
# T7 sequence (P47898 whole entry, species assumed): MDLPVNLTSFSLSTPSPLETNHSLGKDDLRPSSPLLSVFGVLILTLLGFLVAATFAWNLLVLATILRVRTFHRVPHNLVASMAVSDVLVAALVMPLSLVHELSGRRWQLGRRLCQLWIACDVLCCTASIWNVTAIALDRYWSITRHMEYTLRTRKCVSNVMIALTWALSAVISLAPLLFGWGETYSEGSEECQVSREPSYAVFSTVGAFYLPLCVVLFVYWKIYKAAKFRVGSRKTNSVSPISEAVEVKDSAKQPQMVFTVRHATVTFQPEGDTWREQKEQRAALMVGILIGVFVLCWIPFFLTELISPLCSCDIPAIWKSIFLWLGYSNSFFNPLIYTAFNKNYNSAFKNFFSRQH
# Experimental: as §1
# [17] = target: T8, 5-HT6 (Homo sapiens, UniProt P50406); experiment: NIMH-PDSP radioligand binding assay, 5-HT6
# T8 construct: NIMH-PDSP
# T8 sequence (P50406 whole entry, species assumed): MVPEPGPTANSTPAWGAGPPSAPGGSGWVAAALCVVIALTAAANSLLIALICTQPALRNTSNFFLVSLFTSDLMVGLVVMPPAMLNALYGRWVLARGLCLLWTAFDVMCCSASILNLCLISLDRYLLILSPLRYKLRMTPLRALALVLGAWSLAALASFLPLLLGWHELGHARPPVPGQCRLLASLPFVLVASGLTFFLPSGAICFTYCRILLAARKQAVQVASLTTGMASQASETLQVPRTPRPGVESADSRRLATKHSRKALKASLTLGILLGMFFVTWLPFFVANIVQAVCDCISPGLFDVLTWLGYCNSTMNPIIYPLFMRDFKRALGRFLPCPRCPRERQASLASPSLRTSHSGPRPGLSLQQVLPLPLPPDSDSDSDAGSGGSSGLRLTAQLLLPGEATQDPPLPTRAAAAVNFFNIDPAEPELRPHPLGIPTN
# Experimental: as §1
# [18] = target: T9, D3R (Homo sapiens, UniProt P35462); experiment: NIMH-PDSP radioligand binding assay, D3R
# T9 construct: NIMH-PDSP
# T9 sequence (P35462 whole entry): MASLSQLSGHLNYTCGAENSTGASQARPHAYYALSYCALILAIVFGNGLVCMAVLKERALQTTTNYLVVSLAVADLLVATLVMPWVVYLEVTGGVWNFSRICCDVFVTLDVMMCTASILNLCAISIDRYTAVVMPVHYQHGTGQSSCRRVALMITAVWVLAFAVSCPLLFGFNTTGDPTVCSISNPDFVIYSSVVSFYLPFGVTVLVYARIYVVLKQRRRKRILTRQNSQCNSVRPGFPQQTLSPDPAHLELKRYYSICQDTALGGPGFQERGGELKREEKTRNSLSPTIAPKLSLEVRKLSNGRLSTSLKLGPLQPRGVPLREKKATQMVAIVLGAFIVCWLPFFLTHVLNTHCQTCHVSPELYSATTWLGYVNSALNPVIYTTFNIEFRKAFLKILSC
# Experimental: as §1
# [19] = target: T10, D4R (Homo sapiens, UniProt P21917); experiment: NIMH-PDSP radioligand binding assay, D4R
# T10 construct: NIMH-PDSP
# T10 sequence (P21917 1-419): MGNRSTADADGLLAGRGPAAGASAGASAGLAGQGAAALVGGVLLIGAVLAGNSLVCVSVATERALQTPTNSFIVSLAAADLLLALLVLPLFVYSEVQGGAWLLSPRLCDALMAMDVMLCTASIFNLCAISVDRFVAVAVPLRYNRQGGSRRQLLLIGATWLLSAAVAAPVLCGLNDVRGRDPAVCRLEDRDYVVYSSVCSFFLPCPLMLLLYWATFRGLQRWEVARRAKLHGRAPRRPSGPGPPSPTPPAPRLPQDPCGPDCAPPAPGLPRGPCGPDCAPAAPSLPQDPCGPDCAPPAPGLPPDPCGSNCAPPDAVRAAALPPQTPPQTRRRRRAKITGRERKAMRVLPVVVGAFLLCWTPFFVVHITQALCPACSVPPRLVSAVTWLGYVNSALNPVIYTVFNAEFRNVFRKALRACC
# Experimental: as §1
# [20] = target: DAT (Homo sapiens, UniProt Q01959); experiment: NIMH-PDSP radioligand binding assay, DAT
# DAT, sequence (Q01959 whole entry, species assumed): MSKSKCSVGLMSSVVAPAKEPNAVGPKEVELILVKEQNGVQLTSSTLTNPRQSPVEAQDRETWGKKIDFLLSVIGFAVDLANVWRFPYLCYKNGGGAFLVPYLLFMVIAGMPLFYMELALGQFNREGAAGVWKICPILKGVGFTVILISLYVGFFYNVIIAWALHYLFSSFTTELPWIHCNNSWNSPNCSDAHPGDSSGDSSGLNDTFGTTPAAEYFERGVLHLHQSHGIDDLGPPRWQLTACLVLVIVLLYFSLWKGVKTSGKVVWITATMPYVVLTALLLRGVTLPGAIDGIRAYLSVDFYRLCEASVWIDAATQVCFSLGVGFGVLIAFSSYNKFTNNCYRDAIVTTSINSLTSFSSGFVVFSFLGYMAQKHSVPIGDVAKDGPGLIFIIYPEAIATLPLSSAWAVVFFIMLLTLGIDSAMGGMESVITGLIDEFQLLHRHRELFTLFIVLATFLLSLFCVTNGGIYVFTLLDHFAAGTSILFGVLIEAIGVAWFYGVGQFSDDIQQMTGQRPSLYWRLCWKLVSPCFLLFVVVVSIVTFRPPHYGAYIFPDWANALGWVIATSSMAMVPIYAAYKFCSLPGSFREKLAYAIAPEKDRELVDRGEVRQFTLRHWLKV
# Experimental: as §1
# [21] = target: NET (Homo sapiens, UniProt P23975); experiment: NIMH-PDSP radioligand binding assay, NET
# NET, sequence (P23975 whole entry): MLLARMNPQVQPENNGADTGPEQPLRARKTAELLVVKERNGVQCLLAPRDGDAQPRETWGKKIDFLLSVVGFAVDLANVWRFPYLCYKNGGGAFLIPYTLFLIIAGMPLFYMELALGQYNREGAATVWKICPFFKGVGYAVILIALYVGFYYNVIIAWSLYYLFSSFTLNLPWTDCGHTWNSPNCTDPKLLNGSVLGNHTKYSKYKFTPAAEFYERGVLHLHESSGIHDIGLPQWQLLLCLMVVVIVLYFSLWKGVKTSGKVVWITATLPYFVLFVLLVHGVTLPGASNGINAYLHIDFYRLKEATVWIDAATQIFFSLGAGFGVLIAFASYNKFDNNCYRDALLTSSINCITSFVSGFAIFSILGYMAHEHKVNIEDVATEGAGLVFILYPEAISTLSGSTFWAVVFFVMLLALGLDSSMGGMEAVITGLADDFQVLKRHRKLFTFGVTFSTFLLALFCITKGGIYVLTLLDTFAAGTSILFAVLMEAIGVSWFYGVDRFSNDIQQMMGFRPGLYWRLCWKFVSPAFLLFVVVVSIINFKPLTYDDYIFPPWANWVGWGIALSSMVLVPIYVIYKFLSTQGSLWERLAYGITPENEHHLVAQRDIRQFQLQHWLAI
# Experimental: as §1
# [22] = target: SERT (Homo sapiens, UniProt P31645); experiment: NIMH-PDSP radioligand binding assay, SERT
# Experimental: as §1
# [23] = target: T11, NOP (Homo sapiens, UniProt P41146); experiment: NIMH-PDSP radioligand binding assay, NOP
# T11 construct: NIMH-PDSP
# T11 sequence (P41146 whole entry): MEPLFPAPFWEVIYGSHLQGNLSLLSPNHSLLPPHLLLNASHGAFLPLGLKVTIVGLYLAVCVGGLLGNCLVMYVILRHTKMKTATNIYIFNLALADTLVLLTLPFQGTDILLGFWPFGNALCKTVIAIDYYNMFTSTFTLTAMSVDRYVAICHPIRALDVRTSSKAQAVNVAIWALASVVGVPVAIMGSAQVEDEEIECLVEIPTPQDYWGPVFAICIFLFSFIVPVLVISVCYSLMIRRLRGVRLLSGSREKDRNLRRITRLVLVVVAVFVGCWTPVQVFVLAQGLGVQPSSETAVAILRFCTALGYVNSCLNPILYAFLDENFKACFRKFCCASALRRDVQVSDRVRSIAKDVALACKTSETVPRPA
# Experimental: as §1
# [24] = target: T12, PBR (Rattus norvegicus, UniProt P16257); experiment: NIMH-PDSP radioligand binding assay, PBR
# T12 construct: NIMH-PDSP
# Experimental: as §1
# [25] = target: T13, Sigma1R (Homo sapiens, UniProt Q99720); experiment: NIMH-PDSP radioligand binding assay, Sigma1R
# T13 construct: NIMH-PDSP
# T13 sequence (Q99720 whole entry, species assumed): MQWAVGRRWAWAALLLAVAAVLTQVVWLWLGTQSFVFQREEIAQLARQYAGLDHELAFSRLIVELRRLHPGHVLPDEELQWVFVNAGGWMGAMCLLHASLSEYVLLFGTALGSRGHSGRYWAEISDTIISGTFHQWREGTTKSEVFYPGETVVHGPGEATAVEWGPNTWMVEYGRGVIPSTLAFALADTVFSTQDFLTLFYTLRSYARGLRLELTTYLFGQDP
# Experimental: as §1
smiles,measurement,setting,value
"O=C(NCCN1CCN(c2ccccc2O)CC1)c1ccncc1 [10b, N-(2-(4-(2-hydroxyphenyl)piperazin-1-yl)ethyl)isonicotinamide]",melting point,,105 to 106 °C
[11CH3]Oc1ccccc1N1CCN(CCNC(=O)c2ccccn2)CC1 [[^11C]2],Brain uptake,[1],negligible
[11CH3]Oc1ccccc1N1CCN(CCNC(=O)c2ccncc2)CC1 [[^11C]3],early peak SUV in brain,"[1]; male, Sprague Dawley, in vivo",4–5
same,time of early peak SUV following radiotracer injection,"[1]; male, Sprague Dawley, in vivo",~ 1 min
same,washout from brain,[1]; in vivo,fast
same,decrease of whole brain BP,"[2]; SRTM, cerebellum reference",63%
same,decrease of BP in anterior cingulate cortex,[2],69%
same,decrease of BP in hippocampus,[2],56%
same,decrease of BP in striatum,[2],34%
same,decrease of BP in thalamus,[2],73%
same,decrease of binding in the saliva gland,[2],68%
COc1ccccc1N1CCN(CCN(C(=O)C2CCCCC2)c2ccccn2)CC1 [[carbonyl-^11C]WAY100635],Ki,[3],16.4 nM
COc1ccccc1N1CCN(CCC(C(=O)N2CCCCCC2)c2ccccc2)CC1 (stereo in doubt) [[^11C](R)-RWAY],Ki,[4],0.6 nM
same,Ki,[5],7.2 nM
same,Ki,[6],10.3 nM
same,Ki,[7],34.5 nM
same,Ki,[8],5.1 nM
same,Ki,[9],15.6 nM
"O=C(NCCN1CCN(c2ccccc2O)CC1)c1ccccn1 [10a, N-(2-(4-(2-hydroxyphenyl)piperazin-1-yl)ethyl)picolinamide]",melting point,,112 to 113 °C
COc1ccccc1N1CCN(CCNC(=O)c2ccncc2)CC1 [Compound 3],Ki,[10],> 10000 nM
same,Ki,[11],> 10000 nM
same,Ki,[12],1180 nM
same,Ki,[13],137 nM
same,Ki,[14],> 10000 nM
same,Ki,[15],> 10000 nM
same,Ki,[16],1810 nM
same,Ki,[17],> 10000 nM
same,Ki,[18],133 nM
same,Ki,[19],153 nM
same,Ki,[20],> 10000 nM
same,Ki,[21],> 10000 nM
same,Ki,[22],> 10000 nM
same,Ki,[23],> 10000 nM
same,Ki,[24],> 10000 nM
same,Ki,[25],> 10000 nM
[11CH3]Oc1ccccc1N1CCN(CCCN/C(=N\C#N)c2ccccn2)CC1 [[^11C]1],Brain uptake,[1],negligible
"N#CN=C(NCCCN1CCN(c2ccccc2O)CC1)c1ccccn1 [compound 7, N'-Cyano-N-(3-(4-(2-hydroxyphenyl)piperazin-1-yl)propyl)picolinamidine]",melting point,,137 to 138 °C
